Where two headings read alike, the source gives them in different places.
Columns and labels:
[1] = system: S. cerevisiae yeast cells; assay: Yeast growth in suspension with ATP and drug selection (turbidity); type: cell-based, Saccharomyces cerevisiae; conditions: 100 mM ATP, 48 hours
Description: Cell lines: Cell lines were the same as those described above in Example 2 and 3. YMR4 MDR1 is the phosphatase mutant yeast strain overexpressing AtPGP-1; YMR4 pVT101 contains vector alone; INVSC MDR1 is the wild-type yeast strain overexpressing AtPGP-1; and INVSC pVT101 contains vector alone.
Selection in drug: To create drug resistant yeast strains, all four cell lines were grown up in the presence of 500 ng/ml of cycloheximide, and transferred to other cycloheximide containing plates after a period of four to six days. This transfer of cell lines and subculturing continued such that the yeast cells grew in the presence of cycloheximide for a period of at least a month.
Cells cultured in media alone: To create cell lines that had not been preselected for their ability to grow in drug, yeast strains were grown on plates containing YNB (Bio101, Vista, Calif.) without uracil (-URA) to maintain the presence of the vector (which supplies URA) without any drugs added.
Growth of cells in suspension for ATP and drug selection experiments: Cells were transferred into 5 ml YNB-URA liquid media for turbidity measurements. All cell lines (both non-drug selected and drug-selected) were grown in media with the addition of either nothing, 500 ng/ml cycloheximide, 100 mM ATP, or 500 ng/ml cycloheximide and 100 mM ATP. Turbidity readings were taken after 48 hours.

[2] = system: Arabidopsis thaliana plants; assay: Arabidopsis germination selection assay of transgenic plants (Example 2); type: in vivo; conditions: cycloheximide 250 ng/ml
From the text: Expression of apyrase and AtPGP-1 in plants: The expression of apyrase in plants is as described above in Example 1. Similar methods were employed to express AtPGP-1 in Arabidopsis thaliana plants with the following modifications. The AtPGP-1 coding region was subcloned into a pBIN vector lacking the GUS gene as described in Sidler, et al., 1998, The Plant Cell 10:1623-1636. This plasmid was then transformed into A. tumefaciens as described above, which was used to infect root calli to produce transgenic plants expressing AtPGP-1.
Plant growth: Arabidopsis thaliana seeds were sown in a solid germination media containing MS salt, 2% sucrose, 0.8% agar, and vitamins (Valvekens, D. et al., […], Proc. Natl. Acad. Sci. USA 85:5536-5540. For selection assays, cycloheximide was spread on the media to achieve a final concentration of 250 ng/ml. Plant growth was measured by germination percentage after 6-30 days.

[3] = system: Arabidopsis thaliana plants; type: in vivo; conditions: after 10-20 days
Description: Plant Growth: Arabidopsis seeds were sown in a solid germination media containing MS salts (Sigma Chemical, St. Louis, Mo.), 2% sucrose, 0.8% agar, and vitamins (Valvekens, D. et al., 1992, Proc. Natl. Acad. Sci. USA 85:5536-5540). For selection assays, one of the following, or a combination of both, Was added to media (cooled to less than 50° C. before adding) immediately prior to pouring into plates: cycloheximide at a final concentration of 500 ng/ml; α,β-methyleneadenosine 5′-diphosphate at a final concentration of 1 mM. Plant growth was measured by germination percentage after 10-20 days.
All other materials and methods were discussed above in Example 2.

yeast mutant YMR4 = assay: Yeast growth in suspension, salvage pathway experiments (adenosine, phosphate); type: cell-based, Saccharomyces cerevisiae; conditions: 72 hours; for effect of addition to the media on resistance to cycloheximide: YMR4 cells, 3 mM adenosine, potassium phosphate; for effect of addition on growth in drug: cells overexpressing AtPGP-1 grown in cycloheximide
Description: Growth of cell lines in suspension for salvage pathway experiments: All cell lines were grown in liquid media either containing drug (for the drug selected lines) or not containing drug (for the non-drug selected lines). When the cultures reached a turbidity of 1.00 as measured at a wavelength of 600 in a spectrophotometer (OD600=1.00), 10 μl of each culture was then removed and placed in either media with nothing added, 3 mM potassium phosphate; 3 mM adenosine; 9 mM potassium phosphate and 3 mM adenosine (for controls); potassium phosphate and cycloheximide; adenosine and cycloheximide; adenosine, cycloheximide, and potassium phosphate. Cell cultures were further grown for 72 hours, and their turbidity was determined by OD600 readings on a spectrophotometer.

[4] = system: Saccharomyces cerevisiae INVSC1 and YMR4; assay: Yeast growth selection assay on plates and in liquid media (turbidity OD600); type: cell-based; conditions: cycloheximide 500 ng/ml
From the text: Expression of AtPGP-1 in yeast: The AtPGP-1 cDNA (Arabidopsis thaliana MDR gene, accession #X61370) was subcloned into pVT101 downstream of the ADH promoter to create the AtPGP-1/pVT101 construct. AtPGP-1/pVT101 and pVT101 were transformed into Saccharomyces cerevisiae INVSC1 (genotype: MATα, his3-Δ1, leu2, trp1-289, ura3-52) and YMR4 (genotype: MATαhis3-11,15, leu2-3, 112ura3Δ5, can Res pho5, 3::ura3Δ1) by a PEG lithium acetate procedure (Eble, R., 1992, Biotechniques 13:18-20) and selected on uracil dropout medium.
Yeast Growth: Yeast were grown at 30° C. under conditions of constant selection for uracil auxotrophy. YNB (Bio101, Vista, Calif.) supplemented with CSM (uracil dropout) and 2% glucose was used to grow strains having pVT101 constructs. Cycloheximide (Sigma Chemical, St. Louis, Mo.) was added to liquid media or spread on solid media to achieve a final concentration of 500 ng/ml. Nigericin (Sigma Chemical, St. Louis, Mo.) was added to liquid media or spread on solid media to achieve a final concentration of 25 μg/ml. Yeast strains used in cycloheximide selection assays were always propagated in the presence of the cycloheximide on plates and then streaked onto new plates containing drug or no drug, such that induced resistance existed in each strain at the time of the start of the assay. For selection assays on plates, single colonies were streaked; for selection in liquid media 0.01 ml of saturated culture was added to fresh media containing the drug. The plates shown in figures were grown for 3-5 days before photographs were taken. Yeast selection assays in liquid media were quantitated by turbidity as measured by absorbance at OD600.

[5] = YMR4 ecto-phosphatase deficient mutant (vector alone), nigericin 25 μg/ml
[6] = YMR4 expressing AtPGP-1, nigericin 25 μg/ml

Structure (SMILES): Nc1ncnc2c1ncn2[C@@H]1O[C@H](COP(=O)(O)OP(=O)(O)OP(=O)(O)O)[C@@H](O)[C@H]1O [ATP]
- growth in high levels of ATP ([1]; cells not previously selected in drug): able to grow
- growth in high levels of ATP ([1]; cells previously selected in cycloheximide, not overexpressing AtPGP-1): not able to grow

Structure (SMILES): CC(C)=CCNc1ncnc2nc[nH]c12 [N6-(2-isopentenyl) adenine]
- resistance of plants to the drug (germination) ([2]; plants over-expressing AtPGP-1): confer resistance
- resistance of plants to the drug (germination) ([2]; plants over-expressing apyrase): The same result was obtained

Structure (SMILES): Nc1ncnc2c1ncn2[C@@H]1O[C@H](COP(=O)(O)CP(=O)(O)O)[C@@H](O)[C@H]1O [phosphatase inhibitor, α,β-methyleneadenosine 5′-diphosphate]
- germination rate ([3]; AtPGP-1 overexpressing (MDR OE) plants, cycloheximide 500 ng/ml, phosphatase inhibitor 1 mM): 83%
- germination rate ([3]; wild-type plants, cycloheximide 500 ng/ml, phosphatase inhibitor 1 mM): 90%

Structure (SMILES): Nc1ncnc2c1ncn2[C@@H]1O[C@H](CO)[C@@H](O)[C@H]1O [adenosine]
- effect of addition to the media on resistance to cycloheximide (yeast mutant YMR4): did not enhance resistance
- effect of addition on growth in drug (yeast mutant YMR4): slightly inhibitory

Structure (SMILES): O=P(O)(O)O [phosphate, potassium phosphate]
- effect of addition to the media on resistance to cycloheximide (yeast mutant YMR4): did not enhance resistance
- effect of addition on growth in drug (yeast mutant YMR4): slightly inhibitory

Structure (SMILES): CO[C@@H]1C[C@@H](C[C@H]2CC[C@H](C)[C@H]([C@@H](C)C(=O)O)O2)O[C@]2(O[C@](C)([C@H]3CC[C@@](C)([C@@H]4O[C@@H]([C@H]5O[C@@](O)(CO)[C@H](C)C[C@@H]5C)C[C@@H]4C)O3)C[C@H]2C)[C@@H]1C [nigericin]
- growth in the presence of drug [4, 5]: reduced growth
- growth in the presence of drug [4, 6]: The same result was obtained

Structure (SMILES): C[C@@H]1C[C@@H]([C@H](O)CC2CC(=O)NC(=O)C2)C(=O)[C@@H](C)C1 [cycloheximide]
- germination rate ([3]; AtPGP-1 overexpressing (MDR OE) plants): 50%
- germination rate ([3]; wild-type plants): 2%
- resistance of plants to the drug (germination) ([2]; plants over-expressing AtPGP-1): confer resistance
- resistance of plants to the drug (germination) ([2]; plants over-expressing apyrase): conference of resistance
- effect of AtPGP-1 on growth in the presence of drug ([4]; INVSC1 wild-type yeast with AtPGP-1): did not have any effect
- growth in the presence of drug ([4]; INVSC1 wild-type yeast): did grow
- growth in the presence of drug [4, 5]: did not grow
- growth in the presence of drug [4, 6]: enabled the yeast mutant to grow

From patent publication US6448472B1, “Genetic and epigenetic manipulation of ABC transporters and ectophosphatases for the conference of hormone and herbicide resistance” (Board of Regents, The University of Texas System, priority 1999, dated 2002)
